How the values were obtained:
[1] = in vivo; conditions: beagle, dog, plasma
Protocol: (§1) A study was conducted in dogs to determine the pharmacokinetics and bioavailability of a buccal formulation of carbocysteine in comparison to oral and IV routes of administration.
(§2) The study was conducted according to the following methodology. A 400 mg dissolving tablet, a 400 mg oral tablet, and a 200 mg IV dose of carbocysteine were administered to each of five beagle dogs in a randomized crossover pattern. […] The dissolving tablet was administered to the animal by placing the tablet in the mouth until it dissolved. The oral tablet was administered by forcing the animal to swallow the tablet. […] Plasma concentrations were measured by precolumn derivatization of S-carboxymethylcysteine using o-phthaldialdehyde (OPA) and subsequent HPLC analysis. All data were analyzed using WinNonlin®, a tool for pharmacokinetic and pharmacodynamic analysis. The carbocysteine plasma data was fitted to a one-compartment model with first-order elimination. The pharmacokinetic parameters (t1/2, CL, Vd) generated from each route of administration were compared using analysis of variance (ANOVA) to detect statistically significant differences. A paired t-test was used to detect the differences in Cmax, Tmax, Ka, and F between buccal and oral routes of administration.

[2] = Buccal availability study: pharmacokinetics and bioavailability of carbocysteine in dogs (buccal vs oral vs IV); conditions: beagle dogs; range across buccal and oral routes; no significant differences
Protocol: as §1, §2

Vd [1]: 0.405 to 0.418 L/kg
clearance [1]: 4.52 to 4.64 mL/min/kg
half-life [1]: 1.02 to 1.07 h
Tmax ([1]; 400 mg): 1.5 to 1.55 h
Ka [2]: 0.028−0.034 min^−1
SMILES: N[C@@H](CSCC(=O)O)C(=O)O [carbocysteine, S-carboxymethyl-L-cysteine]

Reference: US20100120776A1, “Carbocysteine medical foods” (Hall Bioscience Corporation, priority 2008, published 2010)
